Experimental data as given in patent publication US20110230476A1, “PI3 KINASE INHIBITORS AND USES THEREOF” (AVILA THERAPEUTICS, INC., priority 2009, published 2011).

How the values were obtained:
[1] = target: T1, PI3Kγ (p120γ) (Homo sapiens, UniProt P48736); assay: HTRF assay, potency against active PI3Kγ; format: biochemical; settings: [ATP]=50 μM, [di-C8-PIP2]=10 μM, 30 min pre-incubation, read-out: PI3Kγ Inhibition
T1 construct: purchased BPS Bioscience (San Diego, Calif.) or Millipore (Billerica, Mass.)
T1 sequence (P48736 whole entry): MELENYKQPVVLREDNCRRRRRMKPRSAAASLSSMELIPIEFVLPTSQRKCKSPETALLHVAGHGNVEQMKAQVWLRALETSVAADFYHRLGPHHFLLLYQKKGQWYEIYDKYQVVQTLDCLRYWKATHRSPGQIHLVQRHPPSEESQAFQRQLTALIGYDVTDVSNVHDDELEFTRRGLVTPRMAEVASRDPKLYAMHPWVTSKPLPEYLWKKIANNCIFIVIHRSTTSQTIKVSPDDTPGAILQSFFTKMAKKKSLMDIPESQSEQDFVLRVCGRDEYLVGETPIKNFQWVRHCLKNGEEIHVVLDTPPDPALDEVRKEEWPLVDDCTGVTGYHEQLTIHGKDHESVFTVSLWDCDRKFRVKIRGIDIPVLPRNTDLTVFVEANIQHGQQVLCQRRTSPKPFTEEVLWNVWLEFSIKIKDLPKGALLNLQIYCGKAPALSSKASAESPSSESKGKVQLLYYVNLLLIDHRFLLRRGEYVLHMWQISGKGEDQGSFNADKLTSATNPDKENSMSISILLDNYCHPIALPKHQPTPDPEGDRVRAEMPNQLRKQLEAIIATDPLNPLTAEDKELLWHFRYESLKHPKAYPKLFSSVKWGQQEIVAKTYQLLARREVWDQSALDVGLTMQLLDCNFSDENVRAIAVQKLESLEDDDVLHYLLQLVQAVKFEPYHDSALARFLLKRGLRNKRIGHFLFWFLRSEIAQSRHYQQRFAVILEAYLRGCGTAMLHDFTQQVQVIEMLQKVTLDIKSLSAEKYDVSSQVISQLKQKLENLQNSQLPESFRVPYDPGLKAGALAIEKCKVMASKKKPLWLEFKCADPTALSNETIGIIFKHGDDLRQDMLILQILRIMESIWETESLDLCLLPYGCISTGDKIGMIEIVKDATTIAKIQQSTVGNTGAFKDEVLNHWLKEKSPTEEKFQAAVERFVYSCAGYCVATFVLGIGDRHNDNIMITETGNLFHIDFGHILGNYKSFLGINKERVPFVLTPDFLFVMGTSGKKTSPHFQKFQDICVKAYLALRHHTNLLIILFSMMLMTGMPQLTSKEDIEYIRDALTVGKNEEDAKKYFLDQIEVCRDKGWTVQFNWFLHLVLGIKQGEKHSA
Excerpt: Homogeneous Time Resolved Fluorescence (HTRF) Assay Protocol for Potency Assessment Against the Active Forms of PI3Kα, PI3Kβ, and PI3Kγ
The protocol below describes an end-point, competition-binding HTRF assay used to measure inherent potency of test compounds against active PI3Kα (p110α/p85α), PI3Kβ (p110β/p85α), and PI3Kγ (p120γ) enzymes. The mechanics of the assay platform are best described by the vendor (Millipore, Billerica, Mass.) on their website at the following URL: www.millipore.com/coa/tech1/74jt4z.
Briefly, Stop solution (Stop A, #33-007 and Stop B, #33-009; 3:1 ratio) and Detection Mix (from DMC, #33-015 with DMA, #33-011 and DMB, #33-013; 18:1:1 ratio) were prepared as recommended by the manufacturer about 2 hrs prior to use. Additionally, 1× reaction buffer (from 4× buffer stock# 33-003), 1.4× stocks of PI3Kα, PI3Kβ, and PI3Kγ enzymes from BPS Bioscience (San Diego, Calif.) or Millipore (Billerica, Mass.) with di-C8-PIP2 lipid substrate (#33-005), and a 4×ATP solution (#A7699 Sigma/Aldrich; St. Louis, Mo.) were prepared in 1× reaction buffer. 15 μL of PI3K enzymes and lipid substrate mix were pre-incubated in a Corning (#3573) 384-well, black, non-treated microtiter plate (Corning, N.Y.) for 30 min at 25° C. with a 0.5 μL volume of 50% DMSO and serially diluted compounds prepared in 50% DMSO. Lipid kinase reactions were started with the addition of 5 μL of ATP solution, mixed for 15 sec on a rotary plate shaker and incubated for 30-60 minutes at 25° C. Next, reactions were stopped with a 5 μL addition of Stop solution immediately followed by a 5 μL volume of Detection Mix. Stopped reactions were equilibrated for 1 and 18 hrs at room temperature and read in a Synergy^4 plate reader from BioTek (Winooski, Vt.) at λex330-80/λem620-35 and λem665-7.5. At the conclusion of each assay, the HTRF ratio from fluorescence emission values for each well was calculated and % Inhibition determined from averaged controls wells (+/−PI3K enzyme). % Inhibition values for each compound were then plotted against inhibitor concentration to estimate IC50 from log [Inhibitor] vs Response, Variable Slope model in GraphPad Prism from GraphPad Software (San Diego, Calif.).
[Reagent] used in optimized protocol: • [p110α/p85α]=0.5-1.5 nM, [ATP]=50 μM, [di-C8—PIP2]=10 μM • [p110β/p85α]=0.75 nM, [ATP]=50 μM, [di-C8—PIP2]=10 μM • [p120γ]=2-2.5 nM, [ATP]=50 μM, [di-C8—PIP2]=10 μM • (ATP KMapp for both enzymes was estimated to be 40-70 μM)

[2] = target: T2, PI3Kα (p110α/p85α) (Homo sapiens, UniProt P42336); assay: HTRF assay, potency against active PI3Kα; format: biochemical; settings: HTRF; [ATP]=50 μM, [di-C8-PIP2]=10 μM; 30 min pre-incubation; read-out: PI3Kα Inhibition
T2 construct: purchased BPS Bioscience (San Diego, Calif.) or Millipore (Billerica, Mass.)
T2 sequence (P42336 whole entry): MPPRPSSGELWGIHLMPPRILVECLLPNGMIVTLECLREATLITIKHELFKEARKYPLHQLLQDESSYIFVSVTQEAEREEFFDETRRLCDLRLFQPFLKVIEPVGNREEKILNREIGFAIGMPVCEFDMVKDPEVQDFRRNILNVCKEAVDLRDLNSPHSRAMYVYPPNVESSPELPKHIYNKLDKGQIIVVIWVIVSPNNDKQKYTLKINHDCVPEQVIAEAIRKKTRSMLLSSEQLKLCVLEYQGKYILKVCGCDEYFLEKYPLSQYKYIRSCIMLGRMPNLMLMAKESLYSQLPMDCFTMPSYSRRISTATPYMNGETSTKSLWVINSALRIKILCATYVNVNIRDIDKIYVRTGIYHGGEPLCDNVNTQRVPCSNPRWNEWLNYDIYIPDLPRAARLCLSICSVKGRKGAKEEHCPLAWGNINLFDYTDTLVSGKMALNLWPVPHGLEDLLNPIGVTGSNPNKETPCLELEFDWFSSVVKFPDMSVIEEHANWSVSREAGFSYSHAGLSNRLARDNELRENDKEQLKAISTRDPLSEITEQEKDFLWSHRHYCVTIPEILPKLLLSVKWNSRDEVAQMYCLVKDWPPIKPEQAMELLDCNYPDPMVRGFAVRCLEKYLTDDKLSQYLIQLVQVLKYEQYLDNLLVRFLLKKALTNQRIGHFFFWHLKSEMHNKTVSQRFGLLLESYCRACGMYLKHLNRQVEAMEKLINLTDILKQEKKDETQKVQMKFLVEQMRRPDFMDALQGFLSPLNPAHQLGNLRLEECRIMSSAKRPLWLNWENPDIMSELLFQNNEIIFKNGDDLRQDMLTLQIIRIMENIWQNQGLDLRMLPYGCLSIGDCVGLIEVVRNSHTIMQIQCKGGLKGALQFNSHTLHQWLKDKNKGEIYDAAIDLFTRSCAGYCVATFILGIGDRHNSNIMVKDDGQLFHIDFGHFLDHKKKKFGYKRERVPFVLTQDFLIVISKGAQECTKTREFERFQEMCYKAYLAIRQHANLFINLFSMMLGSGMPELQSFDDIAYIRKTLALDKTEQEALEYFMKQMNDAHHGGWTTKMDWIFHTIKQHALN
T2 sequence (P27986 whole entry partner): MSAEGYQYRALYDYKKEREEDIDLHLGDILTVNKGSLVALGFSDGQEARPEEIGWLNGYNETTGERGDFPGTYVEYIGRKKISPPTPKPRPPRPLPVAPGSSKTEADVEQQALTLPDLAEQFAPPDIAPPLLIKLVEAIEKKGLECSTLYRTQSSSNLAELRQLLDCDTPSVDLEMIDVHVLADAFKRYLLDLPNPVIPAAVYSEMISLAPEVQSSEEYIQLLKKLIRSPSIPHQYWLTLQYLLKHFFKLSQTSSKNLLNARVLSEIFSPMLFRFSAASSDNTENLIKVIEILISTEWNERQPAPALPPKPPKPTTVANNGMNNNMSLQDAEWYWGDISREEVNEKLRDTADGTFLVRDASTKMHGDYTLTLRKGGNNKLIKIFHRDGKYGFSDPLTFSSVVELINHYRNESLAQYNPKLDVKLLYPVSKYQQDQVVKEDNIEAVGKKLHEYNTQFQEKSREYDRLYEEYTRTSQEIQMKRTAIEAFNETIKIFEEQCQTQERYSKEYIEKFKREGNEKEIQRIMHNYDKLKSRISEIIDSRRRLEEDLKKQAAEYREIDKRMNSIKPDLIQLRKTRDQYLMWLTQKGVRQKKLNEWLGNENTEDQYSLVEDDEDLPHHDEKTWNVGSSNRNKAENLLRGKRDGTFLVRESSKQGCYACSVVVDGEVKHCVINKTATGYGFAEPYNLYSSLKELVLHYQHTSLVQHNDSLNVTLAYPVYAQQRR
Method in brief: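 IC50 came from a variable-slope fit of % inhibition, calculated from the HTRF emission ratio relative to wells with and without enzyme. Reactions with the active enzyme complex ran 30-60 minutes at 25 °C after ATP addition before stop and detection reagents.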

[3] = tested on: Phospho-Akt(Ser473); assay: Dose response in SKOV3 cells as determined by in-cell Western; format: cell-based; settings: Homo sapiens, SK-OV-3; SKOV3 cells, 1 hr; read-out: pAKT Inhibition in cell Western
Protocol: Dose Response in SKOV3 Cells as Determined by in-Cell Western
Twenty four hours later the media was removed and replaced with 100 ul media containing test compound or control compound and cells were returned to the incubator for 1 hr. At the end of the hour, the media was removed and the cells were washed once with PBS, then fixed for 20 minutes at room temperature in 4% formaldehyde in PBS. The formaldehyde was removed and cells were washed 5 times for 5 minutes with 100 ul of Permeabilization Buffer (PBS+0.1% Triton X-100) at room temperature with gentle shaking. The last wash was removed and replaced with 150 ul of Odyssey Blocking Buffer (Li-Cor, Lincoln, Nebr.) and incubated for 90 minutes at room temperature with gentle shaking.
The Blocking Buffer was then replaced with 50 ul of primary antibody mix (rabbit anti-Phospho-Akt(Ser473) at 1:100 (Cell Signaling Technology, Boston, Mass.) and mouse anti-tubulin at 1:5000 (Sigma Aldrich, St. Louis, Mo.) diluted in Odyssey Blocking Buffer) and incubated overnight at room temperature with gentle shaking.
The next morning, the antibody mix was removed and the wells were washed 5 times for 5 minutes with PBS+0.1% Tween-20. The last wash was replaced with 50 ul of secondary antibody mix (goat anti-rabbit-IRDye-680 and goat anti-mouse-IRDye-800 (Li-Cor), both diluted 1:1000 in Odyssey Blocking Buffer+0.2% Tween-20) and incubated for 1 hour at room temperature with gentle shaking. The antibody mix was removed and the wells were washed 5 times for 5 minutes in PBS+0.1% Tween-20, then 1 time with ddH2O.
The plates were scanned on an Odyssey machine (Li-Cor) with a 3 mm focus offset at an intensity of 8 in both channels and the data was analyzed using the Odyssey software.

Compound	IC50 [1] [nM]	IC50 [2] [nM]	EC50 [3] [nM]
CC(C)(C)/C=C\C(=O)CC[C@H](NC(=O)OC(C)(C)C)C(=O)N1CCN(Cc2cc3nc(-c4cccc5[nH]ncc45)nc(N4CCOCC4)c3s2)CC1 [II-a-52, (S)-tert-butyl 1-(4-((2-(1H-indazol-4-yl)-4-morpholinothieno[3,2-d]pyrimidin-6-yl)methyl)piperazin-1-yl)-8,8-dimethyl-1,5-dioxonon-6-en-2-ylcarbamate]	> 1000	100 to 1000	–
C=CC(=O)N(C)Cc1cc2nc(-c3cccc(O)c3)nc(N3CCOCC3)c2s1 [II-a-39, N-((2-(3-hydroxyphenyl)-4-morpholinothieno[3,2-d]pyrimidin-6-yl)methyl)-N-methylacrylamide]	> 1000	10 to 100	–
CC(C)(C)C#CC(=O)CC[C@H](NC(=O)OC(C)(C)C)C(=O)N1CCN(Cc2cc3nc(-c4cccc5[nH]ncc45)nc(N4CCOCC4)c3s2)CC1 [II-a-51, (S)-tert-butyl 1-(4-((2-(1H-indazol-4-yl)-4-morpholinothieno[3,2-d]pyrimidin-6-yl)methyl)piperazin-1-yl)-8,8-dimethyl-1,5-dioxonon-6-yn-2-ylcarbamate]	> 1000	100 to 1000	–
C=C(CC)C(=O)CCC(=O)N1CCN(c2ccc(-c3ccnc4ccc(/C=C5\SC(=O)NC5=O)cc34)cn2)CC1 [V-20, (Z)-5-((4-(6-(4-(5-methylene-4-oxoheptanoyl)piperazin-1-yl)pyridin-3-yl)quinolin-6-yl)methylene)thiazolidine-2,4-dione]	–	< 10	10 to 100
C=CC(=O)Nc1ccc(C(=O)N(C)Cc2cc3nc(-c4cnc(N)nc4)nc(N4CCOCC4)c3s2)cc1 [II-a-175, 4-acrylamido-N-((2-(2-aminopyrimidin-5-yl)-4-morpholinothieno[3,2-d]pyrimidin-6-yl)methyl)-N-methylbenzamide]	–	10 to 100	≤ 10
CC(C)=CC(=O)CCC(=O)NCc1ccc(-c2cc3nc(-c4cccc(O)c4)nc(N4CCOCC4)c3s2)cc1 [II-a-122, N-(4-(2-(3-hydroxyphenyl)-4-morpholinothieno[3,2-d]pyrimidin-6-yl)benzyl)-6-methyl-4-oxohept-5-enamide]	–	10 to 100	100 to 1000
C=C(C)C(=O)c1ccc(C(=O)N2CC=C(c3cc(-c4cnc(N)nc4)nc(N4CCOCC4)c3)CC2)cc1 [XII-49, 1-(4-(4-(2-(2-aminopyrimidin-5-yl)-6-morpholinopyridin-4-yl)-1,2,3,6-tetrahydropyridine-1-carbonyl)phenyl)-2-methylprop-2-en-1-one]	–	10 to 100	100 to 1000
CC(C)=CC(=O)CCCC(=O)N(C)Cc1cc2nc(-c3cnc(N)nc3)nc(N3CCOCC3)c2s1 [II-a-174, N-((2-(2-aminopyrimidin-5-yl)-4-morpholinothieno[3,2-d]pyrimidin-6-yl)methyl)-N,7-dimethyl-5-oxooct-6-enamide]	–	10 to 100	≤ 10

Now from value to compound:

IC50 [1] [nM]	IC50 [2] [nM]	EC50 [3] [nM]	Compound
> 1000	100 to 1000	–	C=CC(=O)NCC(=O)NCC(=O)N1CCN(Cc2cc3nc(-c4cccc5[nH]ncc45)nc(N4CCOCC4)c3s2)CC1 [II-a-32, N-(2-(2-(4-((2-(1H-indazol-4-yl)-4-morpholinothieno[3,2-d]pyrimidin-6-yl)methyl)piperazin-1-yl)-2-oxoethylamino)-2-oxoethyl)acrylamide]
> 1000	100 to 1000	–	C=CC(=O)N1CCN(C(=O)C2CCN(Cc3cc4nc(-c5cccc6[nH]ncc56)nc(N5CCOCC5)c4s3)CC2)CC1 [II-a-31, 1-(4-(1-((2-(1H-indazol-4-yl)-4-morpholinothieno[3,2-d]pyrimidin-6-yl)methyl)piperidine-4-carbonyl)piperazin-1-yl)prop-2-en-1-one]
> 1000	100 to 1000	–	CCCC(=O)CCC(=O)NCC(=O)N1CCN(Cc2cc3nc(-c4cccc5[nH]ncc45)nc(N4CCOCC4)c3s2)CC1 [II^R-a-16]
> 1000	> 1000	–	C=CC(=O)NCCN1CCN(Cc2cc3nc(-c4cccc5[nH]ncc45)nc(N4CCOCC4)c3s2)CC1 [II-a-59]
> 1000	10 to 100	–	C=CC(=O)NCCS(=O)(=O)N1CCN(Cc2cc3nc(-c4cccc5[nH]ncc45)nc(N4CCOCC4)c3s2)CC1 [II-a-13, N-(2-(4-((2-(1H-indazol-4-yl)-4-morpholinothieno[3,2-d]pyrimidin-6-yl)methyl)piperazin-1-ylsulfonyl)ethyl)acrylamide]
> 1000	100 to 1000	–	CN(C)C/C=C/C(=O)NCC(=O)N1CCN(Cc2cc3nc(-c4cccc5[nH]ncc45)nc(N4CCOCC4)c3s2)CC1 [II-a-56, (E)-N-(2-(4-((2-(1H-indazol-4-yl)-4-morpholinothieno[3,2-d]pyrimidin-6-yl)methyl)piperazin-1-yl)-2-oxoethyl)-4-(dimethylamino)but-2-enamide]
100 to 1000	100 to 1000	–	C=CS(=O)(=O)N1CCN(Cc2cc3nc(-c4cccc5[nH]ncc45)nc(N4CCOCC4)c3s2)CC1 [II-a-1]
–	> 1000	100 to 1000	CCCC(=O)CCC(=O)N1CCN(Cc2cc3nc(-c4cccc5[nH]ncc45)nc(N4CCOCC4)c3s2)CC1 [II^R-a-36, 1-(4-((2-(1H-indazol-4-yl)-4-morpholinothieno[3,2-d]pyrimidin-6-yl)methyl)piperazin-1-yl)heptane-1,4-dione]
–	100 to 1000	10 to 100	O=C(/C=C/c1ccccn1)CCC(=O)N1CCN(Cc2cc3nc(-c4cccc5[nH]ncc45)nc(N4CCOCC4)c3s2)CC1 [II-a-133, (E)-1-(4-((2-(1H-indazol-4-yl)-4-morpholinothieno[3,2-d]pyrimidin-6-yl)methyl)piperazin-1-yl)-6-(pyridin-2-yl)hex-5-ene-1,4-dione]
–	100 to 1000	10 to 100	C=CC(=O)Nc1ccc(C(=O)N2CCN(Cc3cc4nc(-c5cccc6[nH]ncc56)nc(N5CCOCC5)c4s3)CC2)cc1 [II-a-117, N-(4-(4-((2-(1H-indazol-4-yl)-4-morpholinothieno[3,2-d]pyrimidin-6-yl)methyl)piperazine-1-carbonyl)phenyl)acrylamide]
–	10 to 100	100 to 1000	O=C(/C=C/c1ccccc1F)CCC(=O)N1CCN(Cc2cc3nc(-c4cccc5[nH]ncc45)nc(N4CCOCC4)c3s2)CC1 [II-a-140, (E)-1-(4-((2-(1H-indazol-4-yl)-4-morpholinothieno[3,2-d]pyrimidin-6-yl)methyl)piperazin-1-yl)-6-(2-fluorophenyl)hex-5-ene-1,4-dione]
